According to patent publication US11999727B2 (Tango Therapeutics, Inc., priority 2020, dated 2024):

Assays:
PRMT5 [1] = molecular target: T1, PRMT5 (Homo sapiens, UniProt O14744); assay: PRMT5 biochemical IC50 assay with SAM as cofactor; conditions: PRMT5, SAM as cofactor; read-out: SAM IC50
T1 construct: purchased Viva (custom protein)

PRMT5 [2] = molecular target: T1, PRMT5; assay: PRMT5 biochemical IC50 assay with no cofactor; conditions: PRMT5, no cofactor; read-out: No Cofactor/rel IC50
Description: Table 1 indicates IC50 values (μM) against PRMT5 for exemplary compounds in the presence of SAM as cofactor, with no cofactor, and with MTA as cofactor, respectively (columns 4-6). […] Ki values can be calculated from the IC50 values as described in the Examples section. As detailed in the Examples section, for the assay performed in the presence of SAM, IC50=Ki×1.5 (Ki=IC50/1.5).

PRMT5 [3] = molecular target: T1, PRMT5; assay: PRMT5 biochemical IC50 assay with MTA as cofactor; conditions: PRMT5, MTA as cofactor; read-out: MTA IC50
[4] = test system: HAP1 MTAP-intact cell line; assay: SDMA in-cell western assay, HAP1 MTAP-intact; type: cell-based; conditions: Homo sapiens, HAP1, SDMA in-cell western, HAP1 MTAP-intact; read-out: MTAP HAP1 intact IC50
Summary of the method: (§1)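 MTAP-null vs endogenous-MTAP HAP1 isogenic cells; in-cell western SDMA readout; IC50 per line.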

[5] = test system: HAP1 MTAP-deleted cell line; assay: SDMA in-cell western assay, HAP1 MTAP-deleted; type: cell-based; conditions: for IC50: Homo sapiens, HAP1, SDMA in-cell western, HAP1 MTAP-deleted, read-out: HAP 1 MTAP deleted IC50; for MTAP intact/deleted ratio: IC50 ratio HAP1 MTAP-intact / HAP1 MTAP-deleted, SDMA in-cell western
Summary of the method: as §1

[6] = test system: HAP1 MTAP-deleted cell line; assay: Viability assay, MTAP-deleted cell line; type: cell-based; conditions: Homo sapiens, HAP1, viability assay, MTAP-deleted cell line; read-out: HAP1 MTAP deleted viability
Description: Table 1 additionally indicates IC50 values in a viability assay for the MTAP-deleted cell line (column 10), indicating the effect of treatment with compound on cell survival.

T1 sequence (O14744 whole entry): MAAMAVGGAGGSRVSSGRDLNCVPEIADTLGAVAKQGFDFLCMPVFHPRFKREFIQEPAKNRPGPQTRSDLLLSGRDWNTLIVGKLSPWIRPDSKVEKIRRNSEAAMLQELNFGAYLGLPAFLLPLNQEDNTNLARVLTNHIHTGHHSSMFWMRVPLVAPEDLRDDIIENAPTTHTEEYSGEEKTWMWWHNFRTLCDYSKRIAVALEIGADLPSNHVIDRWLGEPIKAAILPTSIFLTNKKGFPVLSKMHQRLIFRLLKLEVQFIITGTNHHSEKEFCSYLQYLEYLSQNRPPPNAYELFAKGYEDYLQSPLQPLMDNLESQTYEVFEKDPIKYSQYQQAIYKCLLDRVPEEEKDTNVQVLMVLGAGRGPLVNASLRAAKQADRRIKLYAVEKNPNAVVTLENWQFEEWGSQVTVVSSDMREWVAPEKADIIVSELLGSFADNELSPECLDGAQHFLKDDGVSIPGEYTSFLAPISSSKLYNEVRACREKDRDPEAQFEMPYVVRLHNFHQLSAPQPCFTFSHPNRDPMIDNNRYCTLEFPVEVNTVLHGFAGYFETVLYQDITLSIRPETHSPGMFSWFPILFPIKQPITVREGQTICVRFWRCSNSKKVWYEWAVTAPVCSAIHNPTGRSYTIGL
T1 sequence (Q9BQA1 whole entry partner): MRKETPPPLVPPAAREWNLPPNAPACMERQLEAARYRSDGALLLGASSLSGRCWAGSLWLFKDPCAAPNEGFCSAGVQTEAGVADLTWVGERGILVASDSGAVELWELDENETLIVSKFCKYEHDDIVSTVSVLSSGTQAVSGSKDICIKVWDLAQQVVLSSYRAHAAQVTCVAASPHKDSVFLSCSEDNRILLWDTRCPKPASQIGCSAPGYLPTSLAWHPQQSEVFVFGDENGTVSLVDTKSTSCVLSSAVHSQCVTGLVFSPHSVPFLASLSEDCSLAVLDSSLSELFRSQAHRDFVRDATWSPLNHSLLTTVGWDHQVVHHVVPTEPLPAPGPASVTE

SMILES | IC50 (PRMT5 [1]) | IC50 (PRMT5 [2]) | IC50 (PRMT5 [3]) | IC50 [4] | IC50 [5] | MTAP intact/deleted ratio [5] | IC50 [6]
CCc1cc(NC(=O)C(=O)N2C[C@@H](C)CC[C@@H]2c2cc3[nH]ncc3s2)cnc1N (single isomer, unassigned) [Compound 967] | > 500 nM | > 500 nM | > 500 nM | > 1000 nM | > 1000 nM | B (an IC50 ratio greater than or equal to 3 fold but lower than 10 fold) | > 10000 nM
Cc1cc(NC(=O)C(=O)N2C[C@@H](C)CC[C@@H]2c2ccc3sc(C(F)(F)F)nc3c2)cnc1N (single isomer, unassigned) [Compound 972] | 50 to 500 nM | 50 to 500 nM | < 50 nM | < 100 nM | < 100 nM | B (an IC50 ratio greater than or equal to 3 fold but lower than 10 fold) | < 1000 nM
Cc1ccc([C@H]2CC(F)(F)[C@H](C)CN2C(=O)C(=O)Nc2cnc(N)c(C)c2)cn1 (single isomer, unassigned) [Compound 973] | 50 to 500 nM | 50 to 500 nM | < 50 nM | 100 to 1000 nM | < 100 nM | A (an IC50 ratio greater than or equal to 10 fold) | 1000 to 10000 nM
Cc1ccc([C@H]2CC(F)(F)[C@H](C)CN2C(=O)C(=O)Nc2cncc(C(N)=O)c2)cn1 (single isomer, unassigned) [Compound 974] | 50 to 500 nM | 50 to 500 nM | < 50 nM | > 1000 nM | < 100 nM | A (an IC50 ratio greater than or equal to 10 fold) | 1000 to 10000 nM
C[C@H]1CC[C@H](c2cc[nH]n2)N(C(=O)C(=O)Nc2cncc(C(N)=O)c2)C1 (single isomer, unassigned) [Compound 978] | > 500 nM | 50 to 500 nM | 50 to 500 nM | > 1000 nM | > 1000 nM | C (an IC50 ratio of less than 3 fold) | > 10000 nM

The next lines start with results.

IC50 (PRMT5 [1]) | IC50 (PRMT5 [2]) | IC50 (PRMT5 [3]) | IC50 [4] | IC50 [5] | SMILES | MTAP intact/deleted ratio [5] | IC50 [6]
> 500 nM | > 500 nM | > 500 nM | > 1000 nM | > 1000 nM | COc1ncc(NC(=O)C(=O)N2C[C@H](C)CC[C@H]2c2cc(Cl)cc(Cl)c2)cc1C(N)=O (single isomer, unassigned) [Compound 965] | B (an IC50 ratio greater than or equal to 3 fold but lower than 10 fold) | > 10000 nM
> 500 nM | > 500 nM | 50 to 500 nM | > 1000 nM | > 1000 nM | CCc1cc(NC(=O)C(=O)N2C[C@H](C)CC[C@H]2c2cc(Cl)cc(Cl)c2)cnc1N (single isomer, unassigned) [Compound 966] | B (an IC50 ratio greater than or equal to 3 fold but lower than 10 fold) | > 10000 nM
50 to 500 nM | < 50 nM | < 50 nM | 100 to 1000 nM | < 100 nM | COc1ncc(NC(=O)C(=O)N2C[C@@H](C)CC[C@@H]2c2cc3cn[nH]c3s2)cc1C(N)=O (single isomer, unassigned) [Compound 968, 2-methoxy-5-(2-(5-methyl-2-(1H-thieno[2,3-c]pyrazol-5-yl)piperidin-1-yl)-2-oxoacetamido)nicotinamide] | A (an IC50 ratio greater than or equal to 10 fold) | < 1000 nM
> 500 nM | > 500 nM | > 500 nM | > 1000 nM | > 1000 nM | Cc1cc(NC(=O)C(=O)N2C[C@H](C)CC[C@H]2c2cn[nH]c2)cnc1N (single isomer, unassigned) [Compound 969] | C (an IC50 ratio of less than 3 fold) | > 10000 nM
> 500 nM | > 500 nM | > 500 nM | > 1000 nM | > 1000 nM | C[C@@H]1CC[C@@H](c2cn[nH]c2)N(C(=O)C(=O)Nc2cncc(C(N)=O)c2)C1 (single isomer, unassigned) [Compound 970] | C (an IC50 ratio of less than 3 fold) | > 10000 nM
